From patent US20130143929A1, “FUNGICIDAL IMIDAZOLES” (EI DU PONT DE NEMOURS AND COMPANY, priority 2010, published 2013)
Marks after values point to notes of the source that are not given here.

Columns and labels:
Type in all cases: in vivo
[1] = tested on: Puccinia recondite f. sp. tritici (the causal agent of wheat leaf rust); experiment: Test A: wheat leaf rust, preventive spray on wheat seedlings, visual disease rating; conditions: for Test A rating (100 = 100% disease control, 0 = no disease control relative to the controls): wheat leaf rust, preventive spray on wheat seedlings
Summary of the method: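 This was a preventive test: Puccinia recondite f. sp. tritici inoculum was applied one day after compound spray to run-off. Test suspensions were made in 50/50 acetone/water with 250 ppm surfactant, at 200 ppm (800 g/ha equivalent) or 40 ppm. Visual ratings of % disease control relative to controls were made after 24 h of saturated humidity and 7 growth-chamber days, all at 20° C.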

[2] = tested on: Septoria tritici (the causal agent of wheat leaf blotch); experiment: Test B: wheat leaf blotch, preventive spray on wheat seedlings, visual disease rating; conditions: for Test B rating (100 = 100% disease control, 0 = no disease control relative to the controls): wheat leaf blotch, preventive spray on wheat seedlings
Summary of the method: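 Preventive test: Septoria tritici spores applied one day after run-off spraying of seedlings (200 ppm equals 800 g/ha; some tests 40 ppm). After 48 h at 24 °C saturated atmosphere and 19 days at 20 °C, disease scored visually as % control relative to untreated plants.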

[3] = tested on: Botrytis cinerea (the causal agent of tomato Botrytis); experiment: Test C: tomato Botrytis, preventive spray on tomato seedlings, visual disease rating; conditions: for Test C rating (100 = 100% disease control, 0 = no disease control relative to the controls): tomato Botrytis, preventive spray on tomato seedlings
Summary of the method: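 Preventive test: B. cinerea spore inoculation one day after tomato seedlings were sprayed to run-off with compound suspended in 50/50 acetone–water plus 250 ppm surfactant. Plants held 48 h at 20° C in saturated air, then 3 days at 24° C; visual ratings scored 100 (full control) to 0 versus controls; some entries used 40 ppm.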

[4] = tested on: Blumeria graminis f. sp. tritici (also known as Erysiphe graminis f. sp. tritici, the causal agent of wheat powdery mildew); experiment: Test D: wheat powdery mildew, preventive spray on wheat seedlings, visual disease rating; conditions: for Test D rating (100 = 100% disease control, 0 = no disease control relative to the controls): wheat powdery mildew, preventive spray on wheat seedlings
Summary of the method: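 Preventive test: seedlings sprayed to run-off and inoculated with powdery mildew spores one day later. Suspensions were made in 50/50 acetone/water with 250 ppm Trem 014 surfactant (200 ppm equals 800 g/ha). Visual ratings after 8 days at 20 °C give percent disease control versus controls.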

[5] = no asterisk (standard test suspension concentration, not 40 ppm)
[6] = asterisk: 40 ppm test suspension
[7] = asterisk: 40 ppm test suspension, 100 = 100% disease control, 0 = no control

SMILES | Test A rating (100 = 100% disease control, 0 = no disease control relative to the controls) [1, 5] [%] | Test B rating (100 = 100% disease control, 0 = no disease control relative to the controls) [2, 5] [%] | Test C rating (100 = 100% disease control, 0 = no disease control relative to the controls) [3, 5] [%] | Test D rating (100 = 100% disease control, 0 = no disease control relative to the controls) [4, 5] [%] | Test A rating (100 = 100% disease control, 0 = no disease control relative to the controls) [1, 6] | Test B rating (100 = 100% disease control, 0 = no disease control relative to the controls) [2, 6] | Test C rating (100 = 100% disease control, 0 = no disease control relative to the controls) [3, 6] | Test D rating (100 = 100% disease control, 0 = no disease control relative to the controls) [4, 6] | other results
Cc1ncc(C(O)c2c(F)cc(F)cc2F)n1-c1ccc(F)cc1Br (stereo not drawn) [compound 174] | 88 | 35 | 0 | 0 | – | – | – | – | –
Cc1ncc(C(O)c2ccc(C#N)cc2F)n1-c1ccc(F)cc1Br (stereo not drawn) [compound 311] | – | – | – | – | 9* % | 5* % | 0* % | 0* % | –
Cc1nc(Br)c(C(O)c2ccc(F)cc2Br)n1-c1ccc(F)cc1F (stereo not drawn) [compound 309] | – | – | – | – | 100* % | 100* % | 65* % | 64* % | –
COc1ccc(C(O)c2c(C)nc(Cl)n2-c2c(F)cccc2Cl)c(C)c1 (stereo not drawn) [compound 212] | – | – | – | – | 100* % | 100* % | 100* % | 97* % | –
COc1ccc(C(O)c2c(Br)nc(C)n2-c2c(F)cc(F)cc2Cl)c(Cl)c1 (stereo not drawn) [compound 349] | – | – | – | – | 100* % | 100* % | 98* % | 90* % | –
OC(c1ccc(F)cc1F)c1c(Cl)nc(Br)n1-c1c(F)cc(Cl)cc1F (stereo not drawn) [compound 125] | – | – | – | – | 100* % | 100* % | 100* % | 79* % | –
Cc1nc(Cl)n(-c2ccc(F)cc2F)c1C(O)c1ccc(F)cc1Cl (racemic) [compound 35] | 100 | 100 | 100 | 68 | – | – | – | – | –
COc1ccc(C(O)c2c(Cl)nc(C)n2-c2c(F)cccc2Cl)c(Cl)c1 (racemic) [compound 278] | – | – | – | – | 100* % | 100* % | 100* % | 97* % | –
Cc1nc(Br)c(C(O)c2ccc(F)cc2Br)n1-c1ccc(F)cc1Cl (racemic) [compound 253] | 100 | 100 | 100 | 27 | – | – | – | – | –
Cc1nc(Cl)n(-c2c(F)cc(F)cc2Br)c1C(O)c1ccc(F)cc1F (single isomer, unassigned) [compound 16] | 100 | 100 | 100 | 100 | – | – | – | – | –
Cc1cc(F)ccc1C(O)c1cnc(C)n1-c1ccc(F)cc1Br (stereo not drawn) [compound 138] | 89 | 28 | 0 | 0 | – | – | – | – | –
Cc1nc(Br)c(C(O)c2cccnc2)n1-c1c(F)cc(F)cc1F (stereo not drawn) [compound 182] | 68 | 100 | 0 | 21 | – | – | – | – | –
Cc1nc(Br)c(C(O)c2ccc(F)cc2Br)n1-c1c(F)cccc1F (stereo not drawn) [compound 384] | – | – | – | – | – | – | – | – | Test A rating (% disease control, wheat leaf rust) [1, 7]: 100* %; Test B rating (% disease control, wheat leaf blotch) [2, 7]: 100* %; Test C rating (% disease control, tomato Botrytis) [3, 7]: 65* %; Test D rating (% disease control, wheat powdery mildew) [4, 7]: 72* %
Cc1nc(Cl)n(-c2c(F)cc(F)cc2Cl)c1C(O)c1ccc(F)cc1Cl (racemic) [compound 9] | 100 | 100 | 100 | 100 | – | – | – | – | –
COc1ccc(C(O)c2c(Cl)nc(C)n2-c2c(F)cccc2Cl)c(F)c1 (racemic) [compound 277] | – | – | – | – | 100* % | 100* % | 100* % | 97* % | –
Cc1nc(Br)c(C(O)c2c(F)cc(Cl)cc2F)n1-c1ccc(F)cc1Br (stereo not drawn) [compound 308] | – | – | – | – | 100* % | 100* % | 100* % | 93* % | –
Cc1ncc(C(O)c2ccc(F)cc2Br)n1-c1ccc(F)cc1F (racemic) [compound 301] | – | – | – | – | 97* % | 19* % | 24* % | 0* % | –
COc1ccc(C(O)c2c(C)nc(Cl)n2-c2c(F)cccc2F)c(Cl)c1 (racemic) [compound 221] | – | – | – | – | 100* % | 100* % | 99* % | 97* % | –
Cc1cccc(Br)c1-n1c(C)nc(Cl)c1C(O)c1ccc(F)cc1F (stereo not drawn) [compound 338] | – | – | – | – | 94* % | 93* % | 70* % | 56* % | –
Cc1nc(Br)c(C(O)c2ccc(F)cc2Cl)n1-c1c(F)cc(F)cc1Br (stereo not drawn) [compound 136] | 100 | 100 | 100 | 79 | – | – | – | – | –
COc1ccc(C(O)c2c(Br)nc(C)n2-c2c(F)cccc2F)c(F)c1 (stereo not drawn) [compound 53] | – | – | – | – | 100* % | 100* % | 99* % | 43* % | –
